Toxic doses and inconclusive results are not listed. Rule as the data show it: active = T/C of 150% or more; inactive = T/C below 125%.
Test system: L1210 leukemia ip in BDF1 mice, survival T/C
Test: NCI In Vivo Anticancer Drug Screen. Data for tumor model L1210 Leukemia (intraperitoneal) in B6D2F1 (BDF1) mice
Details: endpoint: mean survival time, higher = longer survival
Method in brief: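 Each compound was tested against a transplantable tumor grown in mice. The endpoint was survival, with treated animals benchmarked against vehicle controls as a simple ratio.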

[1] = dose: 12.5 mg/kg/injection, schedule: Q01DX009 (ip), vehicle: saline
[2] = dose: 25.0 mg/kg/injection, schedule: Q01DX009 (ip), vehicle: saline
[3] = dose: 25.0 mg/kg/injection, schedule: Q04DX003 (ip), vehicle: saline
[4] = dose: 100.0 mg/kg/injection, schedule: Q04DX003 (ip), vehicle: Klucel (hydroxypropylcellulose) (HPC)
[5] = dose: 200.0 mg/kg/injection, schedule: Q04DX003 (ip), vehicle: Klucel (hydroxypropylcellulose) (HPC)
[6] = dose: 400.0 mg/kg/injection, schedule: Q04DX003 (ip), vehicle: Klucel (hydroxypropylcellulose) (HPC)
[7] = dose: 100.0 mg/kg/injection, schedule: Q01DX001 (ip), vehicle: saline
[8] = dose: 100.0 mg/kg/injection, schedule: Q01DX009 (ip), vehicle: Klucel (hydroxypropylcellulose) (HPC)
[9] = dose: 200.0 mg/kg/injection, schedule: Q01DX009 (ip), vehicle: Klucel (hydroxypropylcellulose) (HPC)
[10] = dose: 400.0 mg/kg/injection, schedule: Q01DX009 (ip), vehicle: Klucel (hydroxypropylcellulose) (HPC)
[11] = dose: 100.0 mg/kg/injection, schedule: Q01DX001 (ip), vehicle: Klucel (hydroxypropylcellulose) (HPC)
[12] = dose: 200.0 mg/kg/injection, schedule: Q01DX001 (ip), vehicle: Klucel (hydroxypropylcellulose) (HPC)
[13] = dose: 400.0 mg/kg/injection, schedule: Q01DX001 (ip), vehicle: Klucel (hydroxypropylcellulose) (HPC)

Measured: T/C

O=C(CCCCl)N1CCCCC1
inactive: dose: 100.0 mg/kg/injection, schedule: Q04DX002 (ip), vehicle: saline 94 % of control | dose: 200.0 mg/kg/injection, schedule: Q04DX002 (ip), vehicle: saline 98 % of control | dose: 400.0 mg/kg/injection, schedule: Q04DX002 (ip), vehicle: saline 96 % of control

C1CN2CCC1C1(C2)SSC2(CN3CCC2CC3)S1 (stereo unspecified)
inactive: dose: 6.25 mg/kg/injection, schedule: Q01DX009 (ip), vehicle: saline 107 % of control | dose: 6.25 mg/kg/injection, schedule: Q04DX003 (ip), vehicle: saline 96 % of control | [1] 96 % of control | dose: 12.5 mg/kg/injection, schedule: Q04DX003 (ip), vehicle: saline 107 % of control | [2] 119 % of control | [3] 94 % of control

CN1CCN(C(=O)C(c2ccccc2)C2(O)CCCC2)CC1 (stereo unspecified)
inactive: dose: 5.0 mg/kg/injection, schedule: Q01DX001 (ip), vehicle: saline 96 % of control | dose: 10.0 mg/kg/injection, schedule: Q01DX001 (ip), vehicle: saline 105 % of control

O=C(Nc1cccc(O)c1)OCCCl
inactive: dose: 100.0 mg/kg/injection, schedule: Q01DX001 (ip), vehicle: saline + alcohol 105 % of control | dose: 200.0 mg/kg/injection, schedule: Q01DX001 (ip), vehicle: saline + alcohol 102 % of control | dose: 400.0 mg/kg/injection, schedule: Q01DX001 (ip), vehicle: saline + alcohol 92 % of control

CCCCCCCC(=O)OCCCl
inactive: dose: 100.0 mg/kg/injection, schedule: Q01DX009 (ip), vehicle: saline 94 % of control | dose: 200.0 mg/kg/injection, schedule: Q01DX009 (ip), vehicle: saline 97 % of control | dose: 400.0 mg/kg/injection, schedule: Q01DX009 (ip), vehicle: saline 91 % of control

CCOc1nc(N)c(C(N)=O)cc1C#N
inactive: dose: 100.0 mg/kg/injection, schedule: Q04DX003 (ip), vehicle: saline sonified 98 % of control | dose: 200.0 mg/kg/injection, schedule: Q04DX003 (ip), vehicle: saline sonified 105 % of control

O=C(O)CN(Cc1ccccc1)Cc1ccccc1
inactive: [4] 95 % of control | [5] 98 % of control | [6] 98 % of control

c1ccc(C23c4ccccc4C(=NC4CCCCC4)C2N3C2CCCCC2)cc1 (stereo unspecified)
inactive: [7] 94 % of control | [8] 97 % of control | [4] 93 % of control | dose: 200.0 mg/kg/injection, schedule: Q01DX001 (ip), vehicle: saline 104 % of control | [9] 92 % of control | [5] 94 % of control | dose: 400.0 mg/kg/injection, schedule: Q01DX001 (ip), vehicle: saline 110 % of control | [10] 91 % of control | [6] 98 % of control

O=C(Nc1ccccc1Cl)Nc1ccccc1[N+](=O)[O-]
inactive: dose: 100.0 mg/kg/injection, schedule: Q04DX002 (ip), vehicle: saline + alcohol 111 % of control | dose: 200.0 mg/kg/injection, schedule: Q04DX002 (ip), vehicle: saline + alcohol 100 % of control | dose: 400.0 mg/kg/injection, schedule: Q04DX002 (ip), vehicle: saline + alcohol 96 % of control

O=C(Nc1ccc(Cl)cc1[N+](=O)[O-])c1ccc2ccccc2c1O
inactive: [8] 101 % of control | [9] 111 % of control | [10] 103 % of control

CC(=O)Oc1cccc(OC(C)=O)c1OC(C)=O
inactive: [8] 103 % of control | [4] 107 % of control | [9] 100 % of control | [5] 97 % of control | [10] 97 % of control | [6] 100 % of control

CCC(N)Cc1ccc2c(c1)OCO2 (stereo unspecified)
inactive: [3] 98 % of control | dose: 50.0 mg/kg/injection, schedule: Q04DX003 (ip), vehicle: saline 101 % of control | dose: 100.0 mg/kg/injection, schedule: Q04DX003 (ip), vehicle: saline 100 % of control

CC(=O)C(=O)C1=C2CCCN2CCc2cc3c(cc21)OCO3
inactive: dose: 100.0 mg/kg/injection, schedule: Q04DX002 (ip), vehicle: Klucel (hydroxypropylcellulose) (HPC) 111 % of control | dose: 200.0 mg/kg/injection, schedule: Q04DX002 (ip), vehicle: Klucel (hydroxypropylcellulose) (HPC) 114 % of control | dose: 400.0 mg/kg/injection, schedule: Q04DX002 (ip), vehicle: Klucel (hydroxypropylcellulose) (HPC) 118 % of control

O=C(/C=C/c1ccccc1)c1ccc2c(c1)OCO2
inactive: dose: 100.0 mg/kg/injection, schedule: Q04DX003 (ip), vehicle: water 98 % of control | dose: 200.0 mg/kg/injection, schedule: Q04DX003 (ip), vehicle: water 96 % of control | dose: 400.0 mg/kg/injection, schedule: Q04DX003 (ip), vehicle: water 94 % of control

COc1ccc(C(=O)N/N=C/c2ccc(C)cc2)cc1
inactive: [8] 102 % of control | [9] 102 % of control | [10] 105 % of control

CC(C)(O)CNC(=O)c1cccc([N+](=O)[O-])c1
inactive: [4] 94 % of control | [5] 88 % of control

CCC(C)C(=O)Nc1ccc(Cl)c(Cl)c1 (stereo unspecified)
inactive: [11] 108 % of control | [12] 95 % of control | dose: 222.0 mg/kg/injection, schedule: Q01DX Z (ip), vehicle: methylcellulose (MC) 90 % of control | dose: 333.0 mg/kg/injection, schedule: Q01DX Z (ip), vehicle: methylcellulose (MC) 102 % of control | [13] 95 % of control | dose: 500.0 mg/kg/injection, schedule: Q01DX Z (ip), vehicle: methylcellulose (MC) 96 % of control

CC1=CC=CC(C)(C)CC1=O
inactive: dose: 100.0 mg/kg/injection, schedule: Q04DX003 (ip), vehicle: other 102 % of control | dose: 200.0 mg/kg/injection, schedule: Q04DX003 (ip), vehicle: other 91 % of control | dose: 400.0 mg/kg/injection, schedule: Q04DX003 (ip), vehicle: other 95 % of control

CC1(C)C2CCC3C(C#N)C(CCC#N)C=CC3C21 (stereo unspecified)
inactive: dose: 100.0 mg/kg/injection, schedule: Q04DX003 (sc), vehicle: olive oil, sesame oil, peanut oil 98 % of control | dose: 200.0 mg/kg/injection, schedule: Q04DX003 (sc), vehicle: olive oil, sesame oil, peanut oil 97 % of control | dose: 400.0 mg/kg/injection, schedule: Q04DX003 (sc), vehicle: olive oil, sesame oil, peanut oil 101 % of control

O=C1S/C(=C/c2ccccc2)C(=O)N1c1ccccc1
inactive: [11] 98 % of control | [12] 90 % of control | [13] 94 % of control

O=C1C(=O)C(C(=O)c2ccccc2)C(=O)C1C(=O)c1ccccc1 (stereo unspecified)
inactive: dose: 55.0 mg/kg/injection, schedule: Q01DX Z (ip), vehicle: saline 109 % of control | dose: 83.0 mg/kg/injection, schedule: Q01DX Z (ip), vehicle: saline 100 % of control | dose: 125.0 mg/kg/injection, schedule: Q01DX Z (ip), vehicle: saline 93 % of control

CCCCCCCCCCCCCC(CCCCCCCCCCCC)CCCCCCCCCCCC
inactive: dose: 100.0 mg/kg/injection, schedule: Q01DX001 (ip), vehicle: saline with Tween-80 92 % of control | dose: 200.0 mg/kg/injection, schedule: Q01DX001 (ip), vehicle: saline with Tween-80 87 % of control | dose: 400.0 mg/kg/injection, schedule: Q01DX001 (ip), vehicle: saline with Tween-80 87 % of control

CC(=O)Oc1cc(-c2ccccc2)c2oc(C)nc2c1-c1ccccc1
inactive: [4] 101 % of control | [5] 103 % of control | [6] 93 % of control

COc1c(O)ccc2c1-c1c3c(cc4c1C(C2)NCC4)OCO3 (stereo unspecified)
inactive: [7] 102 % of control

O=c1c(-c2ccccc2)c(-c2ccccc2)c1=O
inactive: dose: 75.0 mg/kg/injection, schedule: Q01DX001 (ip), vehicle: saline 91 % of control | dose: 150.0 mg/kg/injection, schedule: Q01DX001 (ip), vehicle: saline 96 % of control

CCOC(=O)c1ccc2c3c([nH]c2c1C)-c1ccccc1CC3
inactive: dose: 50.0 mg/kg/injection, schedule: Q01DX001 (ip), vehicle: carboxymethylcellulose (CMC) 95 % of control | dose: 100.0 mg/kg/injection, schedule: Q01DX001 (ip), vehicle: carboxymethylcellulose (CMC) 97 % of control | dose: 200.0 mg/kg/injection, schedule: Q01DX001 (ip), vehicle: carboxymethylcellulose (CMC) 106 % of control | dose: 400.0 mg/kg/injection, schedule: Q01DX001 (ip), vehicle: carboxymethylcellulose (CMC) 103 % of control

CC(C)=CCNC1=NCCN1
inactive: [1] 91 % of control | [2] 94 % of control | dose: 50.0 mg/kg/injection, schedule: Q01DX009 (ip), vehicle: saline 99 % of control
